Test results as given in ChEMBL document CHEMBL3885861, “Open TG-GATES”.

Species on record: Rattus norvegicus
Test: Open TG-GATES - Regimen: Daily Repeat
Type: toxicity, organism-based, Sprague-Dawley
Set-up: regimen Daily Repeat, gender Male, age 6 weeks
Conditions: in vivo, po, 30 mg/kg, route gavage, dose level High; for APTT / Bas / Eos / Fbg / Hb / Ht / Lym / MCH / MCHC / MCV / Mono / Neu / PT / Plat / RBC / Ret / WBC: tissue Blood; for KIDNEY_L / KIDNEY_R / KIDNEY_TOTAL: tissue Kidney; for LIVER: tissue Liver; for A/G / ALP / ALT / AST / BUN / CRE / Ca / Cl / DBIL / GLC / IP / K / LDH / Na / PL / RALB / TBIL / TC / TG / TP / gamma-GTP: tissue Plasma

For `Cn1cnc([N+](=O)[O-])c1Sc1ncnc2nc[nH]c12` [AZATHIOPRINE], the TERMINAL_BW (72 h, time 3 day) was 201.9 g, the APTT (72 h, time 3 day) was 19.5 s and the Bas (72 h, time 3 day) was 0%. The Eos (72 h, time 3 day) was 0.8%, the Fbg (72 h, time 3 day) was 327.6 mg/dL and the Hb (72 h, time 3 day) was 12.7 g/dL. The Ht (72 h, time 3 day) was 37.9%, the Lym (72 h, time 3 day) was 86% and the MCH (72 h, time 3 day) was 21.7 pg. For the same compound, the MCHC (72 h, time 3 day) was 33.5%, the MCV (72 h, time 3 day) was 64.7 fL and the Mono (72 h, time 3 day) was 2.2%. The Neu (72 h, time 3 day) was 9.4%, the PT (72 h, time 3 day) was 15.3 s and the Plat (72 h, time 3 day) was 140.5 x10_4/uL. The RBC (72 h, time 3 day) was 585.2 x10_4/ul, the Ret (72 h, time 3 day) was 2.3% and the WBC (72 h, time 3 day) was 55.5 x10_2/uL. The KIDNEY_L (72 h, time 3 day) was 0.9 g, the KIDNEY_R (72 h, time 3 day) was 0.9 g and the KIDNEY_TOTAL (72 h, time 3 day) was 1.8 g. The LIVER (72 h, time 3 day) was 9.7 g, the A/G (72 h, time 3 day) was 1.2 and the ALP (72 h, time 3 day) was 1508.2 IU/L. For the same compound, the ALT (72 h, time 3 day) was 33 IU/L, the AST (72 h, time 3 day) was 68.2 IU/L and the BUN (72 h, time 3 day) was 17.2 mg/dL. It also gave a CRE (72 h, time 3 day) of 0.1 mg/dL, a Ca (72 h, time 3 day) of 11.3 mg/dL and a Cl (72 h, time 3 day) of 106 meq/L. The DBIL (72 h, time 3 day) was 0 mg/dL, the GLC (72 h, time 3 day) was 185 mg/dL and the IP (72 h, time 3 day) was 6.8 mg/dL. The K (72 h, time 3 day) was 4.4 meq/L, the LDH (72 h, time 3 day) was 199.8 IU/L and the Na (72 h, time 3 day) was 143 meq/L. It also gave a PL (72 h, time 3 day) of 160.4 mg/dL, an RALB (72 h, time 3 day) of 3.3 g/dL and a TBIL (72 h, time 3 day) of 0.008 mg/dL. For the same compound, the TC (72 h, time 3 day) was 91.8 mg/dL, the TG (72 h, time 3 day) was 77 mg/dL and the TP (72 h, time 3 day) was 6 g/dL. The gamma-GTP (72 h, time 3 day) was 1.4 IU/L, the TERMINAL_BW ([…], time 7 day) was 220 g and the TERMINAL_BW ([…], time 14 day) was 226 g. For the same compound, the TERMINAL_BW ([…], time 28 day) was 300.4 g, the APTT ([…], time 7 day) was 21.5 s and the Bas ([…], time 7 day) was 0%. It also gave an Eos ([…], time 7 day) of 1%, a Fbg ([…], time 7 day) of 314.4 mg/dL and a Hb ([…], time 7 day) of 12.4 g/dL. It also gave a Ht ([…], time 7 day) of 36%, a Lym ([…], time 7 day) of 84.6% and an MCH ([…], time 7 day) of 22.1 pg. The MCHC ([…], time 7 day) was 34.5%, the MCV ([…], time 7 day) was 64.2 fL and the Mono ([…], time 7 day) was 1.8%. For the same compound, the Neu ([…], time 7 day) was 11.6%, the PT ([…], time 7 day) was 15.1 s and the Plat ([…], time 7 day) was 192.2 x10_4/uL. It also gave an RBC ([…], time 7 day) of 561.4 x10_4/ul, a Ret ([…], time 7 day) of 4.1% and a WBC ([…], time 7 day) of 73.3 x10_2/uL. It also gave an APTT ([…], time 14 day) of 28.3 s, a Bas ([…], time 14 day) of 0% and an Eos ([…], time 14 day) of 0.2%. For the same compound, the Fbg ([…], time 14 day) was 458.2 mg/dL, the Hb ([…], time 14 day) was 12.5 g/dL and the Ht ([…], time 14 day) was 35%. For the same compound, the Lym ([…], time 14 day) was 85.8%, the MCH ([…], time 14 day) was 21.8 pg and the MCHC ([…], time 14 day) was 35.6%. The MCV ([…], time 14 day) was 61.2 fL, the Mono ([…], time 14 day) was 2% and the Neu ([…], time 14 day) was 10.6%. The PT ([…], time 14 day) was 18.9 s, the Plat ([…], time 14 day) was 86.4 x10_4/uL and the RBC ([…], time 14 day) was 571.6 x10_4/ul. It also gave a Ret ([…], time 14 day) of 3%, a WBC ([…], time 14 day) of 49.6 x10_2/uL and an APTT ([…], time 28 day) of 24.3 s. It also gave a Bas ([…], time 28 day) of 0%, an Eos ([…], time 28 day) of 1% and a Fbg ([…], time 28 day) of 339.5 mg/dL. It also gave a Hb ([…], time 28 day) of 12.4 g/dL, a Ht ([…], time 28 day) of 35.6% and a Lym ([…], time 28 day) of 87%. It also gave an MCH ([…], time 28 day) of 21.5 pg, an MCHC ([…], time 28 day) of 34.9% and an MCV ([…], time 28 day) of 61.6 fL. For the same compound, the Mono ([…], time 28 day) was 1%, the Neu ([…], time 28 day) was 10.5% and the PT ([…], time 28 day) was 16.4 s. For the same compound, the Plat ([…], time 28 day) was 135.4 x10_4/uL, the RBC ([…], time 28 day) was 577.5 x10_4/ul and the Ret ([…], time 28 day) was 5.3%. The WBC ([…], time 28 day) was 35.2 x10_2/uL, the KIDNEY_L ([…], time 7 day) was 1 g and the KIDNEY_R ([…], time 7 day) was 1 g. For the same compound, the KIDNEY_TOTAL ([…], time 7 day) was 2 g, the KIDNEY_L ([…], time 14 day) was 1.1 g and the KIDNEY_R ([…], time 14 day) was 1.1 g. For the same compound, the KIDNEY_TOTAL ([…], time 14 day) was 2.1 g, the KIDNEY_L ([…], time 28 day) was 1.1 g and the KIDNEY_R ([…], time 28 day) was 1.2 g. It also gave a KIDNEY_TOTAL ([…], time 28 day) of 2.3 g, an LIVER ([…], time 7 day) of 10.9 g and an LIVER ([…], time 14 day) of 11.5 g. It also gave an LIVER ([…], time 28 day) of 12.9 g, an A/G ([…], time 7 day) of 1.1 and an ALP ([…], time 7 day) of 1412.8 IU/L. It also gave an ALT ([…], time 7 day) of 29.6 IU/L, an AST ([…], time 7 day) of 75.2 IU/L and a BUN ([…], time 7 day) of 17.8 mg/dL. It also gave a CRE ([…], time 7 day) of 0.1 mg/dL, a Ca ([…], time 7 day) of 11.3 mg/dL and a Cl ([…], time 7 day) of 105.2 meq/L. It also gave a DBIL ([…], time 7 day) of 0 mg/dL, a GLC ([…], time 7 day) of 191.2 mg/dL and an IP ([…], time 7 day) of 6.6 mg/dL. It also gave a K ([…], time 7 day) of 4.1 meq/L, an LDH ([…], time 7 day) of 255.6 IU/L and a Na ([…], time 7 day) of 142.6 meq/L. It also gave a PL ([…], time 7 day) of 179.8 mg/dL, an RALB ([…], time 7 day) of 3.3 g/dL and a TBIL ([…], time 7 day) of 0.01 mg/dL. For the same compound, the TC ([…], time 7 day) was 98.2 mg/dL, the TG ([…], time 7 day) was 56.4 mg/dL and the TP ([…], time 7 day) was 6.2 g/dL. The gamma-GTP ([…], time 7 day) was 1 IU/L, the A/G ([…], time 14 day) was 0.9 and the ALP ([…], time 14 day) was 976.6 IU/L. For the same compound, the ALT ([…], time 14 day) was 135 IU/L, the AST ([…], time 14 day) was 523.6 IU/L and the BUN ([…], time 14 day) was 31.6 mg/dL. The CRE ([…], time 14 day) was 0.2 mg/dL, the Ca ([…], time 14 day) was 11.2 mg/dL and the Cl ([…], time 14 day) was 106.8 meq/L. It also gave a DBIL ([…], time 14 day) of 0.036 mg/dL, a GLC ([…], time 14 day) of 168.8 mg/dL and an IP ([…], time 14 day) of 8.4 mg/dL. The K ([…], time 14 day) was 4.8 meq/L, the LDH ([…], time 14 day) was 1529.2 IU/L and the Na ([…], time 14 day) was 142.6 meq/L. For the same compound, the PL ([…], time 14 day) was 149.6 mg/dL, the RALB ([…], time 14 day) was 3 g/dL and the TBIL ([…], time 14 day) was 0.074 mg/dL. It also gave a TC ([…], time 14 day) of 94.8 mg/dL, a TG ([…], time 14 day) of 35.8 mg/dL and a TP ([…], time 14 day) of 6.5 g/dL. It also gave a gamma-GTP ([…], time 14 day) of 1.4 IU/L, an A/G ([…], time 28 day) of 1.1 and an ALP ([…], time 28 day) of 982 IU/L. It also gave an ALT ([…], time 28 day) of 32 IU/L, an AST ([…], time 28 day) of 71.5 IU/L and a BUN ([…], time 28 day) of 19 mg/dL. The CRE ([…], time 28 day) was 0.2 mg/dL, the Ca ([…], time 28 day) was 10.8 mg/dL and the Cl ([…], time 28 day) was 106.5 meq/L. The DBIL ([…], time 28 day) was 0.01 mg/dL, the GLC ([…], time 28 day) was 192.5 mg/dL and the IP ([…], time 28 day) was 5.7 mg/dL. It also gave a K ([…], time 28 day) of 3.9 meq/L, an LDH ([…], time 28 day) of 214 IU/L and a Na ([…], time 28 day) of 141.5 meq/L. The PL ([…], time 28 day) was 138.5 mg/dL, the RALB ([…], time 28 day) was 3.4 g/dL and the TBIL ([…], time 28 day) was 0.05 mg/dL. The TC ([…], time 28 day) was 73 mg/dL, the TG ([…], time 28 day) was 42.5 mg/dL and the TP ([…], time 28 day) was 6.5 g/dL. It also gave a gamma-GTP ([…], time 28 day) of 2 IU/L.
